The record followed here is paper PMC8863579, “Effects of pharmacological inhibition of the sodium‐dependent phosphate cotransporter 2b (NPT2b) on intestinal phosphate absorption in mouse and rat models” (Pharmacology Research & Perspectives, 2022).

Read-outs that look alike come from different tables or passages of the source. Bounds are passed on as bounds.

A short description of data set [1]: Solubility at stomach pH. It counts as physicochemical. To be noted: at the pH of the stomach.
Data set [2] concerns the target T1, Human PiT2 (Homo sapiens, UniProt Q08357).
T1 construct: Full Length cDNA Cloning and Generation of Cell Lines Over-Expressing Human NPT2a, NPT2c, Pit1, and Pit2; host or cells: CHO-K1, pcDNA3.1(+), constitutive
T1 sequence (Q08357 1-652): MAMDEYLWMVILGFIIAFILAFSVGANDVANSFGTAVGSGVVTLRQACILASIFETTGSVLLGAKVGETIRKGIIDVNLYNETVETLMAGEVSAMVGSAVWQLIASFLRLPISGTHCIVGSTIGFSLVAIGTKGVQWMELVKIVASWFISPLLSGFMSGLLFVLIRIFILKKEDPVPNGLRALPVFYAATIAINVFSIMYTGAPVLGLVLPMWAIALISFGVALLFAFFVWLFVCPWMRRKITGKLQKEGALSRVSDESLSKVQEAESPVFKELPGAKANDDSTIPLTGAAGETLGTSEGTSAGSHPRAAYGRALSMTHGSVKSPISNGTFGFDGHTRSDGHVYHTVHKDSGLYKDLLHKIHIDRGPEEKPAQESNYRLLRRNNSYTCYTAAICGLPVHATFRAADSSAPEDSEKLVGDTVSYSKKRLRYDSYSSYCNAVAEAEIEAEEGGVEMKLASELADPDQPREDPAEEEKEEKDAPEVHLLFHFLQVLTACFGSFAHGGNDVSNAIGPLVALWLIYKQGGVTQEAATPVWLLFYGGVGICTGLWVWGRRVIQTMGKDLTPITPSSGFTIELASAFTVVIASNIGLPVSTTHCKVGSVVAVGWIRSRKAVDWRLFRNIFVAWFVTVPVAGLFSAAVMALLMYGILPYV
Put plainly: 33P-phosphate uptake in CHO cells over-expressing human PiT2. It counts as cell-based. How it is done: T‐Rex™ Chinese Hamster Ovary cells (CHO; Thermo Fisher Scientific) stably expressing human, mouse, or rat NPT2b under a tetracycline‐inducible promoter were generated using standard cDNA transfection and clone selection procedures (see Supporting Information). Cells were plated in 96‐well CytoStar‐T® scintillating microplates and were incubated overnight in growth media plus 100 ng/ml of tetracycline to induce expression of NPT2b. The next day, cells were washed 3 times with 200 µl assay buffer (137 mM NaCl, 5.4 mM KCl, 2.8 mM CaCl2, 1.2 mM MgSO4, and 14 mM Tris‐HCl buffer, pH 7.5). LY3358966 serially diluted 1‐to‐3 in DMSO was added to cells with assay buffer. An equal volume of H3 ^33PO4 (PerkinElmer) in assay buffer supplemented with 5 µM potassium phosphate was then added to initiate radiolabeled phosphate (^33P‐phosphate) uptake. […] The plate was immediately read on a Wallac MicroBeta Trilux liquid scintillation counter. Percent inhibition at all concentrations tested was calculated, and IC50 values were then determined using a 4‐parameter logistic curve fitting equation.
Similar methods were used to measure the effects of LY3358966 on other transporters of interest, except that constitutive promoters were used to generate CHO cells over‐expressing human PiT1 and PiT2. The ^33P‐phosphate uptake was measured after 45 min at 20°C for the NPT2a, NPT2c, PiT1, and PiT2 assays. […]

For data set [3], the system named is gastric emptying. Put plainly: Gastric emptying assay in mice. To be noted: doses up to 100 mg/kg API. It counts as in vivo, mouse. How it is done: Male C57BL/6 mice, approximately 7–8 weeks old (18–21 g), were fasted overnight. Then, the mice were orally administered a single dose of vehicle (water) or varying doses of LY3358966 SDD dissolved in water. Fifteen minutes later, radiolabeled phosphate was given by oral gavage. Another 15 min later, the animals were sacrificed, and intact stomachs were collected and placed in 50‐ml conical tubes. Ten milliliter of 1 N NaOH was added to each tube and the stomachs were digested at 37°C overnight. Radioactivity in 100 µl digested stomach homogenate was quantitated by scintillation counting. The percent radiolabeled phosphate recovered in the stomach was calculated as the percentage of dpm recovered in the stomach versus the total dpm of radiolabeled phosphate administered.

A short description of data set [4]: Pharmacokinetic study in mice. It counts as in vivo, mouse. To be noted: for bioavailability: po. How it is done:
(§1) Male CD‐1 male mice were orally dosed with 1, 3, or 10 mg/kg API of LY3358966 SDD dissolved in water or were IV dosed with 1 mg/kg LY3358966 formulated in 25% dimethylacetamide, 15% ethanol, 10% propylene glycol, 25% 2‐pyrrolidone, and 25% water. Each dose group contained six animals. Three animals were bled at 0.25, 0.5, 1, 2, 4, 8, 12, and 24 h, with each animal being bled at alternate time points. Plasma drug levels were determined by HPLC/MS. The unbound fraction of LY3358966 in plasma was determined with equilibrium dialysis and LC‐MS/MS.

Data set [5] can be described thus: Unbound fraction in plasma by equilibrium dialysis. It counts as in vitro ADME. As to conditions: mouse plasma. How it is done:
as §1
A general note: Equilibrium dialysis compares concentrations on both sides of a semipermeable membrane.

Where [6] appears, read: across all dose groups, from unbound fraction 0.005.
Where [7] appears, read: male, CD-1, mouse, plasma, IV 1 mg/kg.
Setting [8] is: male, CD-1, mouse, plasma, PO 1 mg/kg.
The mark [9] stands for this setting: male, CD-1, mouse, plasma, PO 3 mg/kg.
Where [10] appears, read: male, CD-1, mouse, plasma, PO 10 mg/kg.

In general, IC50 refers to the concentration that gives 50% inhibition. The AUC is the area under the concentration-time curve, a measure of exposure. One may read the half-life as the time needed for the level to fall by half in the phase considered. Read a low half-life as rapid decline. One may read the Cmax as the maximum level reached in the sampled fluid or tissue. One may read the Tmax as the time at which the peak concentration occurs. In general, bioavailability refers to the share of a dose that reaches the circulation, judged against a reference dose that is usually intravenous. The term fraction unbound denotes free concentration divided by total concentration. The low end stands for extensive binding, the high end for weak binding. Turning to `CC1(C)CN(C(=O)NCCCCO)CCN1Cc1cccc(C(=O)Nc2sc3c(c2C(=O)Nc2cc(F)c(CCc4ccc(C(=O)O)cc4)c(F)c2)CCCC3)c1` [LY3358966, 4‐[2‐[2,6‐difluoro‐4‐[[2‐[[3‐[[4‐(4‐hydroxybutylcarbamoyl)‐2,2‐dimethyl‐piperazin‐1‐yl]methyl]benzoyl]amino]‐4,5,6,7‐tetrahydrobenzothiophene‐3‐carbonyl]amino]phenyl]ethyl]benzoic acid], in data set [1], the solubility result was “minimal solubility”. Besides, the concentration for half-maximal inhibition (IC50) in data set [2] (45 min at 20°C) was over 100 µM. In addition, the Selectivity in data set [2] (ratio of IC50 of human PiT2 assay to that of human NPT2b assay) is over 3086. The “effect on gastric emptying” value in data set [3] is “no effect on gastric emptying”. In addition, the “C max of unbound LY3358966” value in data set [4] (setting [6]) is on record as under 1 nM. Moreover, the “plasma AUC of unbound LY3358966” value in data set [4] (setting [6]) was under 0.002 µM·h. Also, the AUC in data set [4] (setting [7]) came to 0.323 µM·h; in data set [4] (male, CD-1, mouse, plasma, PO 1 mg/kg, SDD dissolved in water), 0.039 µM·h; in data set [4] (male, CD-1, mouse, plasma, PO 3 mg/kg, SDD dissolved in water) it was 0.096 µM·h; in data set [4] (male, CD-1, mouse, plasma, PO 10 mg/kg, SDD dissolved in water), 0.284 µM·h. In addition, the half-life in data set [4] (setting [7]) is 300 min. Further, the figures for the Cmax in data set [4] (setting [8]), in data set [4] (setting [9]) and in data set [4] (setting [10]) were 25 nM, 50 nM and 83 nM, respectively. The Tmax in data set [4] (setting [8]), in data set [4] (setting [9]) and in data set [4] (setting [10]) was 24 min throughout. The bioavailability in data set [4] (male, CD-1, mouse, plasma, 1 mg/kg, PO 1 mg/kg, read-out: F (bioavailability)) is 12%; in data set [4] (male, CD-1, mouse, plasma, 3 mg/kg, PO 3 mg/kg, read-out: F (bioavailability)), 10%; in data set [4] (male, CD-1, mouse, plasma, 10 mg/kg, PO 10 mg/kg, read-out: F (bioavailability)), 9%; in data set [4] (male, CD-1, mouse, plasma, 10 mg/kg, PO 1, 3 and 10 mg/kg, read-out: oral bioavailability F) it was 9 to 12%. Further, in data set [5], the fraction unbound stood at 0.005.
